Broadly, the EC50 is the concentration needed to bring the measured effect to its halfway point.

Molecules are shown by their SMILES.

One assay concerns HCV replicon gt1a_H77. Nature of the assay: Cell-based HCV replicon assay (TaqMan), genotype 1a (H77). Particulars: Hepatitis C virus, 72 h, replicon 1a (H77); replicon RNA by TaqMan, day 3. The method, then: (§1) Measurement of inhibition by compounds of the present invention was performed using the HCV replicon system. Several different replicons encoding different HCV genotypes or mutations were used. In addition, potency measurements were made using different formats of the replicon assay, including different ways of measurements and different plating formats. See Jan M. Vrolijk et al., A replicons-based bioassay for the measurement of interferons in patients with chronic hepatitis C, 110 J. VIROLOGICAL METHODS 201 (2003); Steven S. Carroll et al., Inhibition of Hepatitis C Virus RNA Replication by 2′-Modified Nucleoside Analogs, 278(14) J. BIOLOGICAL […] 11979 (2003). However, the underlying principles are common to all of these determinations, and are outlined below.
(§2) Compounds of the present invention were assayed for cell-based anti-HCV activity using the following protocol. Replicon cells were seeded at 5000 cells/well in 96-well collagen I-coated Nunc plates in the presence of the test compound. Various concentrations of test compound, typically in 10 serial 2-fold dilutions, were added to the assay mixture, with the starting concentration ranging from 250 μM to 1 μM. The final concentration of DMSO was 0.5%, fetal bovine serum was 5%, in the assay media. Cells were harvested on day 3 by the addition of 1× cell lysis buffer (Ambion cat #8721). The replicon RNA level was measured using real time PCR (TaqMan® assay). The amplicon was located in 5B. The PCR primers were: 5B.2F, […] (SEQ. ID NO. 1); 5B.2R, […] (SEQ. ID NO. 2); the probe sequence was FAM-labeled […] (SEQ. ID NO. 3). GAPDH RNA was used as endogenous control and was amplified in the same reaction as NS5B (multiplex PCR) using primers and VIC-labeled probe recommended by the manufacturer (PE Applied Biosystem). The real-time RT-PCR reactions were run on ABI PRISM 7900HT Sequence Detection System using the following program: 48° C. for 30 minutes, 95° C. for 10 minutes, 40 cycles of 95° C. for 15 sec, 60° C. for 1 minute. The ΔCT values (CT5B-CTGAPDH) were plotted against the concentration of test compound and fitted to the sigmoid dose-response model using XLfit4 (MDL). […] Alternatively, to quantitate the absolute amount of replicon RNA, a standard curve was established by including serially diluted T7 transcripts of replicon RNA in the Taqman assay. All TaqMan® reagents were from PE Applied Biosystems. Such an assay procedure was described in detail in e.g. Malcolm et al., Antimicrobial Agents and Chemotherapy 50: 1013-1020 (2006).
(§3) Wherein gt1a_H77 was prepared as described in Yi et al., J Virol. 2004, 78(15):7904-15; gt1b_con1 was prepared as described in Lohmann et al., Science 1999, 285(5424):110-3; and gt2a_JFH was prepared as described in Kato et al., Gastroenterology. 2003, 125(6):1808-17. Chimeric replicons contain NS5A from patient isolates of genotypes 1a, 1b, 2b, 3a and 4a as indicated.
(In general: A replicon is a self-replicating genome or part of one, used to study replication in cells.)

The next assay relates to HCV replicon gt1b_con1. Nature of the assay: Cell-based HCV replicon assay (TaqMan), genotype 1b (Con1). Particulars: Hepatitis C virus, 72 h; replicon 1b (Con1); replicon RNA by TaqMan, day 3. As to the method: as §1, §2, §3
A further assay deals with HCV replicon gt2a_JFH. Nature of the assay: Cell-based HCV replicon assay (TaqMan), genotype 2a (JFH). The following applies: Hepatitis C virus, 72 h, replicon 2a (JFH); replicon RNA by TaqMan, day 3. As to the method:
as §1, §2, §3

Assay [1] has as its system HCV chimeric replicon with NS5A of genotype 3a (NC00982). In words: Cell-based HCV replicon assay (TaqMan), chimeric replicon genotype 3a (NC00982). The following applies: Hepatitis C virus, 72 h, read-out: HCV replicon EC50 3a (NC00982), chimeric replicon 3a (NC00982); replicon RNA by TaqMan, day 3. As to the method: as §1, §2, §3
For assay [2], the system named is HCV chimeric replicon with NS5A of genotype 4a (DQ41878). In words: Cell-based HCV replicon assay (TaqMan), chimeric replicon genotype 4a (DQ41878). Particulars: Hepatitis C virus, 72 h, read-out: HCV replicon EC50 4a (DQ41878). As to the method:
as §1, §2, §3

For assay [3], the system named is HCV replicon 1a (Y93H) mutant. Nature of the assay: Cell-based HCV replicon assay (TaqMan), genotype 1a mutant Y93H. The following applies: Hepatitis C virus, 72 h, read-out: HCV replicon EC50 1a (Y93H). The method, then:
as §1, §2, §3

Assay [4] concerns HCV replicon 1a (L31V) mutant. In words: Cell-based HCV replicon assay (TaqMan), genotype 1a mutant L31V. The following applies: Hepatitis C virus, 72 h, read-out: HCV replicon EC50 1a (L31V). The method, then: as §1, §2, §3

As for `COC(=O)N[C@H](C(=O)N1CC(F)(F)C[C@H]1c1ncc(-c2ccc(-c3ccc4c(ccc5nc([C@@H]6C[Si](C)(C)CN6C(=O)[C@@H](NC(=O)OC)C(C)C)[nH]c54)c3)c(F)c2)[nH]1)C(C)C` [Compound 60], the EC50 with HCV replicon gt1a_H77 came out at 0.06 nM; in the assay on HCV replicon gt1b_con1, 0.003 nM; in the assay with HCV replicon gt2a_JFH it was 0.09 nM; in assay [1], 2.9 nM; in assay [2], 0.129 nM; in assay [3], 96 nM.
Take `COC(=O)N[C@H](C(=O)N1CC(F)C[C@H]1c1ncc(-c2ccc(-c3ccc4c(ccc5nc([C@@H]6C[Si](C)(C)CN6C(=O)[C@@H](NC(=O)OC)C(C)C)[nH]c54)c3)cc2)[nH]1)C(C)C` (stereo partly drawn) [Compound 55]: the EC50 was 0.07 nM in the assay with HCV replicon gt1a_H77; 0.006 nM in the assay with HCV replicon gt1b_con1; 0.15 nM in the assay on HCV replicon gt2a_JFH; 0.8 nM in assay [1]; 0.35 nM in assay [2]; 27 nM in assay [3]. The EC50 in assay [4] turned out to be 62 nM.
As to `COCCOC(=O)N[C@H](C(=O)N1CCC(F)(F)C[C@H]1c1ncc(-c2ccc(-c3ccc4c(ccc5nc([C@@H]6C[Si](C)(C)CN6C(=O)[C@@H](NC(=O)OCCOC)C(C)C)[nH]c54)c3)cc2)[nH]1)C(C)C` [Compound 87], the EC50 with HCV replicon gt1a_H77 was greater than 1 nM; with HCV replicon gt1b_con1, 2.5 nM; in the assay with HCV replicon gt2a_JFH, greater than 10 nM; in assay [1], greater than 100 nM; in assay [2] it was greater than 100 nM; in assay [3] it was greater than 1000 nM. Also, the EC50 in assay [4] was greater than 1000 nM.
As to `COC(=O)N[C@H](C(=O)N1C[Si]2(CCCC2)C[C@H]1c1ncc(-c2ccc(-c3ccc4c(ccc5nc([C@@H]6CC(F)(F)CN6C(=O)[C@@H](NC(=O)OC)C(C)C)[nH]c54)c3)cc2)[nH]1)C(C)C` [Compound 89], the EC50 with HCV replicon gt1a_H77 is 0.054 nM; in the assay with HCV replicon gt1b_con1, 0.006 nM; with HCV replicon gt2a_JFH, 0.5 nM; in assay [1] it was 0.275 nM; in assay [2], 0.035 nM; in assay [3] it was 211 nM.
As for `COC(=O)N[C@H](C(=O)N1CCC(F)(F)C[C@H]1c1ncc(-c2ccc(-c3ccc4c(ccc5nc([C@@H]6C[Si](C)(C)CN6C(=O)[C@@H](NC(=O)OC)C(C)C)[nH]c54)c3)cc2)[nH]1)C(C)C` [Compound 85], the EC50 in the assay with HCV replicon gt1a_H77 turned out to be 0.102 nM; in the assay with HCV replicon gt1b_con1 it was 0.009 nM; in the assay on HCV replicon gt2a_JFH it was 0.065 nM; in assay [1], 0.69 nM; in assay [2], 1.16 nM; in assay [3], 728 nM. The EC50 in assay [4] stood at 89 nM.
For `COC(=O)N[C@H](C(=O)N1CC(C)(C)C[C@H]1c1ncc(-c2ccc(-c3ccc4c(ccc5nc([C@@H]6C[Si](C)(C)CN6C(=O)[C@@H](NC(=O)OC)C(C)C)[nH]c54)c3)cc2)[nH]1)C(C)C` [Compound 78], the EC50 stood at 0.015 nM with HCV replicon gt1a_H77; 0.001 nM in the assay on HCV replicon gt1b_con1; 0.04 nM in the assay on HCV replicon gt2a_JFH; 0.26 nM in assay [1]; 0.137 nM in assay [2]; 90 nM in assay [3].
In the case of `COC(=O)N[C@H](C(=O)N1C[Si](C)(C)C[C@H]1c1ncc(-c2ccc(-c3ccc4c(ccc5nc([C@@H]6CC(F)(F)CN6C(=O)[C@@H](NC(=O)OC)C(C)C)[nH]c54)c3)c(F)c2)[nH]1)C(C)C` [Compound 58], the EC50 came out at 0.03 nM in the assay with HCV replicon gt1a_H77; 0.002 nM with HCV replicon gt1b_con1; 0.15 nM in the assay with HCV replicon gt2a_JFH; 0.8 nM in assay [1]; 0.36 nM in assay [2]; 118 nM in assay [3].
Take `CC(C)[C@H](NC(=O)OC1(C)CC1)C(=O)N1C[Si](C)(C)C[C@@H]1c1ncc(-c2ccc(-c3ccc4c(ccc5nc([C@H]6C[C@H](F)CN6C(=O)[C@@H](NC(=O)OC6(C)CC6)C(C)C)[nH]c54)c3)c(F)c2)[nH]1` [Compound 83]: the EC50 was greater than 1 nM in the assay with HCV replicon gt1a_H77; 52 nM with HCV replicon gt1b_con1; greater than 10 nM in the assay on HCV replicon gt2a_JFH; greater than 100 nM in assay [1]; greater than 100 nM in assay [2]; greater than 1000 nM in assay [3].
For the compound `CC(C)OC(=O)N[C@H](C(=O)N1C[Si](C)(C)C[C@@H]1c1ncc(-c2ccc(-c3ccc4c(ccc5nc([C@H]6C[C@H](F)CN6C(=O)[C@@H](NC(=O)OC(C)C)C(C)C)[nH]c54)c3)c(F)c2)[nH]1)C(C)C` [Compound 84], the EC50 in the assay with HCV replicon gt1a_H77 is greater than 1 nM; with HCV replicon gt1b_con1, 2.4 nM; in the assay on HCV replicon gt2a_JFH, greater than 10 nM; in assay [1], greater than 100 nM; in assay [2], greater than 100 nM; in assay [3] it was greater than 1000 nM.
Turning to `COC(=O)N[C@H](C(=O)N1C[Si]2(CCCC2)C[C@H]1c1ncc(-c2ccc(-c3ccc4c(ccc5nc([C@@H]6CCCN6C(=O)[C@@H](NC(=O)OC)C(C)C)[nH]c54)c3)cc2)[nH]1)C(C)C` [Compound 61], the EC50 was 0.06 nM in the assay on HCV replicon gt1a_H77; 0.005 nM in the assay on HCV replicon gt1b_con1; 0.005 nM with HCV replicon gt2a_JFH; 0.2 nM in assay [1]; 0.076 nM in assay [2]; 350 nM in assay [3].
For `COC(=O)N[C@H](C(=O)N1CC(F)(F)C[C@H]1c1nc2ccc3cc(-c4ccc5c(ccc6nc([C@@H]7C[Si](C)(C)CN7C(=O)[C@@H](NC(=O)OC)C(C)C)[nH]c65)c4)ccc3c2[nH]1)C(C)C` [Compound 70], the EC50 in the assay on HCV replicon gt1a_H77 was 0.012 nM; in the assay with HCV replicon gt1b_con1, 0.007 nM; in the assay on HCV replicon gt2a_JFH it was 0.04 nM; in assay [1], 0.118 nM; in assay [2], 0.077 nM; in assay [3], 25 nM.
As to `COC(=O)N[C@H](C(=O)N1C[Si](C)(C)C[C@@H]1c1nc2ccc3cc(-c4ccc(-c5cnc([C@@H]6CC(C)(C)CN6C(=O)[C@@H](NC(=O)OC)C(C)C)[nH]5)cc4)ccc3c2[nH]1)C(C)C` [Compound 79], the EC50 in the assay with HCV replicon gt1a_H77 amounted to 0.127 nM; with HCV replicon gt1b_con1, 0.012 nM; in the assay on HCV replicon gt2a_JFH it was 0.315 nM; in assay [1] it was 4.4 nM; in assay [2], 0.45 nM; in assay [3] it was 351 nM.
On to `CC(C)[C@H](NC(=O)OC1(C)CC1)C(=O)N1CC(C)(C)C[C@H]1c1ncc(-c2ccc(-c3ccc4c(ccc5nc([C@@H]6C[Si](C)(C)CN6C(=O)[C@@H](NC(=O)OC6(C)CC6)C(C)C)[nH]c54)c3)cc2)[nH]1` [Compound 80], for which the EC50 was greater than 1 nM in the assay with HCV replicon gt1a_H77; greater than 1 nM in the assay on HCV replicon gt1b_con1; greater than 10 nM in the assay with HCV replicon gt2a_JFH; greater than 100 nM in assay [1]; greater than 100 nM in assay [2]; greater than 1000 nM in assay [3].
In the case of `COC(=O)N[C@H](C(=O)N1C[Si](C)(C)C[C@H]1c1ncc(-c2ccc(-c3ccc4c(ccc5nc([C@@H]6C[C@@H](F)CN6C(=O)[C@@H](NC(=O)OC)C(C)C)[nH]c54)c3)c(F)c2)[nH]1)C(C)C` [Compound 57], the EC50 in the assay with HCV replicon gt1a_H77 was 0.068 nM; in the assay with HCV replicon gt1b_con1, less than 0.05 nM; in the assay on HCV replicon gt2a_JFH, 0.069 nM; in assay [1] it was 0.798 nM; in assay [2], 0.652 nM; in assay [3], 50 nM.
Regarding `COC(=O)N[C@H](C(=O)N1CCS(=O)(=O)CC1c1ncc(-c2ccc(-c3ccc4c(ccc5nc([C@@H]6C[Si](C)(C)CN6C(=O)[C@@H](NC(=O)OC)C(C)C)[nH]c54)c3)cc2)[nH]1)C(C)C` (stereo partly drawn) [Compound 67], the EC50 with HCV replicon gt1a_H77 is 0.19 nM; with HCV replicon gt1b_con1 it was 0.011 nM; with HCV replicon gt2a_JFH it was 0.16 nM; in assay [1], 5 nM; in assay [2], 0.5 nM; in assay [3] it was 380 nM.
